Where two headings read alike, the source gives them in different places. Numbered stars: 1 amine (or outer) side, 2 acyl side, 3 side chain; on linkers, the order of the positions; unused ones are H or OH. Bridge positions count the residues as written; N and C are the ends. Square brackets hold non-standard residues; d marks the D form. Peptide text beside a SMILES is read from it. * marks the point of attachment. ξ: configuration not given here. Orn(4R-OH,5R-OCH2CH2NMe3+) = C[N+](C)(C)CCO[C@@H](N[*:3])[C@H](O)C[C@H](N[*:1])C(=O)[*:2]; pTerphenylCO(4''-OnC5H11) = CCCCCOc1ccc(-c2ccc(-c3ccc(C(=O)*)cc3)cc2)cc1; hTyr(3S-OH,4S-OH) = N[C@H](C(=O)O)[C@H](O)[C@@H](O)c1ccc(O)cc1; X1 = C[C@H]1CN([*:1])C(C(=O)[*:2])C1O; Hyp = O=C(O)[C@@H]1C[C@@H](O)CN1; ξT = CC(O)C(N)C(=O)O
How the values were obtained:
C. parapsilosis = assay: In vitro susceptibility testing (CLSI M27-A3); assay type: cell-based, Candida parapsilosis; settings: Lodderomyces parapsilosis, 24 h
Experimental: (§1) Strains. Ten clinical Candida strains were used for the in vivo treatment studies, including four C. albicans, three C. glabrata, and three C. parapsilosis strains (Table 18). This group was selected to encompass phenotypic variability in susceptibility to triazoles and echinocandins and based on similar fitness in the animal model as defined by the amount of growth in control animals over 24 h. The organisms were maintained, grown, and quantified on Sabouraud's dextrose agar (SDA) plates.
(§2) In vitro susceptibility testing. All isolates were tested in accordance with the standards in CLSI document M27-A3. The MICs were determined visually after 24 h of incubation as the lowest concentration of drug that causes a significant diminution (≥50%) of growth compared to controls. MICs were determined on three separate occasions in duplicate.

[1] = system: A. fumigatus clinical isolates; assay: MEC, CLSI broth microdilution (M38-A2), SENTRY clinical isolates; assay type: cell-based, Aspergillus fumigatus; settings: 153 isolates, 2014 and 2015 SENTRY
Source text: The in vitro activity of CD101 was previously evaluated as part of the SENTRY international surveillance program using CLSI broth microdilution methodology (M38-A2, M27-A3; Pfaller, et al 2017). […] These susceptibility data were then compared graphically to CD101 plasma concentrations from studies in healthy adults, adjusted for plasma protein binding. Nonclinical efficacy in a murine model of Pneumocystis pneumonia were also considered to evaluate CD101 doses for clinical investigation of antifungal prophylaxis.
The in vitro activity of CD101 was evaluated against 153 A. fumigatus clinical isolates collected as part of the 2014 and 2015 JMI international SENTRY surveillance program. Susceptibility was determined by measuring the minimal effective concentration (MEC) values in accordance with CLSI broth microdilution guidelines (M38-A2). In vivo tissue distribution of CD101 in SD rats (N=3/time up to 5 d) after a 5 mg/kg IV CD101 dose. Plasma/tissue concentrations were measured by LC-MS/MS.

[2] = Previous toxicology studies by the IV route; assay type: in vivo, cynomolgus monkeys; settings: up to at least 30 mg/kg
[3] = Monkey pharmacokinetics, SC and IV administration; assay type: in vivo, cynomolgus monkeys; settings: for half-life / AUC(0-t) / Cmax / Tmax / AUC(0-inf): cynomolgus monkey, plasma
Experimental: Therefore, only local tolerability (and PK) of CD101 by SC administration required evaluation. […] Plasma concentrations were then quantified by liquid chromatography with tandem mass spectrometric detection (LC-MS/MS). Bioavailability from SC dosing was calculated by comparing the calculated area under the concentration-time profile (AUC) from SC against the AUC from IV administration of the same dose.

C. glabrata = assay: In vitro susceptibility testing (CLSI M27-A3); assay type: cell-based, Candida glabrata; settings: Nakaseomyces glabratus, 24 h
Experimental: as §1, §2

[4] = system: A. fumigatus clinical isolates; settings: SENTRY surveillance (Pfaller, et al 2017); cited from earlier work
[5] = system: C. albicans SC-5314 biofilms; assay: Mature phase biofilms (treatment) on silicone elastomer discs; assay type: cell-based, Candida albicans
Experimental: Biofilms were formed on silicone elastomer (SE) discs using a catheter-associated-biofilm model (Chandra et al., Nature Protocols 3:1909, 2008; Chandra et al., J. […] Chandra et al., J. Dental Research 80: 903, 2001). For evaluation of activity against adhesion phase biofilms (prevention), Candida cells were adhered to catheter discs for 90 min. […] Discs incubated with fluconazole or media alone were used as controls in all experiments. […] Chandra et al., J. […] Chandra et al., J. Dental Research 80: 903, 2001). Following incubation with drugs, discs were transferred to fresh plates containing phosphate buffered saline with XTT and menadione, incubated for 3 h at 37° C. and optical density was read at 492 nm. Separate batches of biofilms were stained with fluorescent dyes (FUN1™, CONA) and observed under Confocal Scanning Laser Microscope (CSLM) to evaluate biofilm architecture and thickness (Chandra et al., Nature Protocols 3:1909, 2008; Chandra et al., J. […] Statistical analyses for all data were performed using GraphPad Prism 6 software. Drug treated groups were compared to control untreated groups using unpaired t-tests.

[6] = both sexes, sc, Subcutaneous, 30 mg/kg
[7] = female, animal 9707, F, 30 mg/kg SC single dose
[8] = male, animal 9697, M, 30 mg/kg SC single dose

## CCCCCOc1ccc(-c2ccc(-c3ccc(C(=O)N[C@H]4C[C@@H](O)[C@@H](OCC[N+](C)(C)C)NC(=O)C5C(O)[C@@H](C)CN5C(=O)[C@H]([C@@H](C)O)NC(=O)[C@H]([C@H](O)[C@@H](O)c5ccc(O)cc5)NC(=O)[C@@H]5C[C@@H](O)CN5C(=O)C(C(C)O)NC4=O)cc3)cc2)cc1 (stereo partly drawn) [CD101] ({pTerphenylCO(4''-OnC5H11)}-[Orn(4R-OH,5R-OCH2CH2NMe3+)][ξT][Hyp][hTyr(3S-OH,4S-OH)]T[X1]; lactam 1-C)
C. parapsilosis; strain 20423.072
  MIC: 0.5 µg/mL
C. parapsilosis; strain 20477.048
  MIC: 1 µg/mL
C. parapsilosis; strain 20519.069
  MIC: 1 µg/mL
[1]
  MEC50: 0.015 µg/mL
  MEC90: 0.015 µg/mL
[2]
  safety and tolerability: safe and well tolerated
[3]; 30 mg/kg SC
  time at which maximum plasma concentration was reached: > 24 h
[3]; 30 mg/kg SC vs IV
  bioavailability (SC vs IV total exposure over 10 days): 80%
[3]; both sexes, sc, 30 mg/kg, Subcutaneous
  half-life: ~124 h
[3]; [6]
  AUC(0-t): 2460 µg·h/mL
  Cmax: 13400 ng/mL
  Tmax: 72 h
[3]; both sexes, sc, Subcutaneous, 30 mg/kg, read-out: AUCinf
  AUC(0-inf): 3520 µg·h/mL
[3]; iv, 30 mg/kg
  AUC(0-t): 3140 µg·h/mL
  Cmax: 112000 ng/mL
  Tmax: 1 h
  half-life: 49.7 h
[3]; iv, 30 mg/kg, read-out: AUCinf
  AUC(0-inf): 3340 µg·h/mL
[3]; female, sc, 30 mg/kg, animal 9707, F, 30 mg/kg SC single dose
  half-life: 171 h
[3]; [7]
  AUC(0-t): 2180 µg·h/mL
  Cmax: 10900 ng/mL
  Tmax: 48 h
[3]; female, animal 9707, F, 30 mg/kg SC single dose, read-out: AUCINF_obs
  AUC(0-inf): 3760 µg·h/mL
[3]; male, sc, 30 mg/kg, animal 9697, M, 30 mg/kg SC single dose
  half-life: 76.2 h
[3]; [8]
  AUC(0-t): 2740 µg·h/mL
  Cmax: 15900 ng/mL
  Tmax: 96 h
[3]; male, animal 9697, M, 30 mg/kg SC single dose, read-out: AUCINF_obs
  AUC(0-inf): 3280 µg·h/mL
C. glabrata; strain 5592
  MIC: 0.125 µg/mL
C. glabrata; strain 10956 (FKS2_HS1_F659V)
  MIC: 1 µg/mL
C. glabrata; strain 35315
  MIC: 0.5 µg/mL
[4]
  MEC90: 0.015 µg/mL
[5]; 0.25 and 1 μg/ml
  biofilm architecture (CSLM): eradicated and showed bulged, deformed/broken cells
[5]; 0.25 and 1 μg/ml, 24 h, vs untreated, P<0.05
  biofilm metabolic activity (XTT): significantly less metabolic activity
[5]; CD101 exposed, untreated control 43 μm, P<0.05
  thickness of biofilms: 24 μm

From patent US20240076347A1, “METHODS FOR PREVENTING FUNGAL INFECTIONS” (Cidara Therapeutics, Inc., priority 2016, published 2024)
